Measurements reported in publication PMC4569013, “Massive Bioaccumulation and Self‐Assembly of Phenazine Compounds in Live Cells” (Advanced Science, 2015).

Columns and labels:
RAW264.7 macrophages [1] = assay: Cell accumulation experiment, transmitted light microscopy of cellular staining pattern; format: cell-based; settings: for Inferred uptake: inferred from staining pattern after 72 hour incubation; for Observed cellular staining pattern (Notes): live cells, 72 hour incubation, 5 × 10^−6 M (2.5 × 10^−6 M for I); for Cellular staining relative to clofazimine: live macrophages, 72 h; for Staining in fixed cells: methanol-fixed cells incubated 72 h with compound (control)
Experimental: Cell Accumulation Experiments and Transmitted Light Microscopic Examination: […] After a 24 h incubation (37 °C, 5% CO2), cells were incubated with solution of clofazmine or its chemical derivatives (300 μL of 5 × 10^−6 m concentration; measured cell viability ranging from 85% to 97% for all compounds tested at this concentration; Figure 1) in DMEM (no phenol red; plus 1 × 10^−3 M sodium pyruvate and 5% FBS). For Compound “I,” 2.5 × 10^−6 M of compound solution in media was used for the RAW 264.7 macrophages incubation because of lower cell viability at higher concentrations (IC50 = (3.95 ± 0.11) × 10^−6 M). A solution of clofazmine or other chemical derivatives was made by a diluting stock solutions (2.5 × 10^−3 M in DMSO; 10 × 10^−3 M stock in DMSO were stored at −80 °C for further use) into DMEM with 5% FBS. […] The extracellular concentration of each compound in each well was maintained by daily replacement of the compound‐containing media. After 72 h of incubation with clofazmine or its derivatives, compound‐containing media were removed and cells were washed twice with media. Live cells in the chambered glasses were examined under inverted transmitted light microscopy (Nikon Eclipse Ti microscope) with a 40× objective and color camera. As a control experiment, fixed cells were also microscopically examined after incubation with the compounds. Cells were seeded on the chambered cover glasses at the density of 1.5 × 10^4 cells cm^−2 (RAW264.7 macrophages) or 2.5 × 10^4 cells cm^−2 (MDCK epithelial cells). After an overnight incubation (37 °C, 5% CO2), media was removed from the wells and cold methanol (−20 °C) was added to each well. After 30 s, remaining methanol was removed by washing with media with 5% FBS. Fixed cells were incubated (37 °C, 5% CO2) with clofazmine or derivatives (300 μL of 5 × 10^−6 M; 2.5 × 10^−6 M for I) in media with 5% FBS. After 72 h, fixed RAW264.7 or MDCK cells were washed with media and examined using the same transmitted microscopy conditions as the live cells.

RAW264.7 macrophages [2] = assay: Cell associated mass measurements (bioaccumulation, pmole/cell); format: cell-based; settings: 72 h incubation, normalized by number of cells
Experimental: Cell Associated Mass Measurements: […] After an overnight incubation (37 °C, 5% CO2), cells were incubated with 100 μL of the media (DMEM with 5% FBS) containing 5 × 10^−6 M clofazmine or its chemical derivatives (2.5 × 10^−6 M of Compound “I”). Media containing each compound was replaced every day during the 72 h incubation. After the incubation, media was removed and cells were washed with Hank's balanced salt solution (HBSS) buffer (No. 14025; Invitrogen) twice. RAW264.7 macrophage cells in buffer were scraped and MDCK epithelial cells were exposed to Trypsin‐EDTA solution for detachment from the plates for cell number counting and quantification of cell‐associated masses. After centrifugation (650 × g), supernatant was removed and cell pellets were resuspended in 0.1 M citric acid/0.1 M trisodium citrate buffer (pH 5) for cell counting as previously reported.7 Equal numbers of cells in 100 μL in buffer were transferred to 96 well plates and 100 μL of detergent (ATCC, 30‐1010K) was added into wells for cell lysis. Chemical absorbance from each well was measured by the UV–vis microplate reader (Synergy 2, BioTek Instruments, Winooski, VT) at 490 nm wavelength and cell‐associated mass of each compound was calculated by a standard curve generated separately using the same media and presented as pmole/cell by normalizing the amount of chemical in each cell population sample by the number of cells in each sample.

MDCK epithelial cells = assay: Confocal fluorescence microscopy, intracellular localization of inclusions; format: cell-based, Canine; settings: 5 × 10^−6 M, 72 h, live cells
Experimental: Confocal Fluorescent Microscopy: A Nikon A1 confocal microscope was used for further investigation of live cells incubated with chiral pairs of compounds (T and U) and the parent compound, P. Since crystals or vesicular forms containing chemicals inside the cells incubated with Compound P, T, or U were fluorescent when viewed with the TRITC filter sets, intracellular distribution of these compounds in RAW264.7 or MDCK cells were visualized using a Nikon A1 confocal microscopy (Nikon Instruments Inc., Melville, NY) equipped with diode‐based lasers and a Nikon Apo 60×/1.4 NA oil immersion lens. Briefly, RAW264.7 macrophages or MDCK epithelial cells were seeded in the 8‐well Nunc Lab‐Tek II chambered (#1.5) cover glasses (Thermo Scientific, Pittsburgh, PA) at a density of 8 × 10^3 cells cm^−2 (RAW264.7 cells) or 1.5 × 10^4 cells cm^−2 (MDCK cells) and allowed to adhere overnight (37 °C, 5% CO2). Then, 5 × 10^−6 M of Compound “P” or the related isomers, “T” or “U” in DMEM with 5% FBS (300 μL) was added to the cells and the cells were incubated for 72 h (37 °C, 5% CO2). For live cell imaging, after the removal of media, cells were washed with HBSS buffer twice. Hoechst 33342 (Invitrogen, Carlsbad, CA) was used for staining cell nuclei and FM 1‐43 (Molecular Probes T35356, Invitrogen) for the plasma membrane. Cells were incubated with 300 μL of 1:1 (v/v) dye mixtures of 5 μg mL^−1 Hoechst 33342 and 7 × 10^−6 M FM 1‐43 in HBSS for 15 min at room temperature. Without fixative, the confocal imaging of the live cells was performed using lasers for DAPI (excitation/emission wavelength: 405 nm/450 ± 25 nm), FITC (488 nm/525 ± 25 nm), and TRITC (561 nm/596 ± 25 nm) channels. Z‐stack images of the cells were captured along the Z‐axis (interval, 1 μm) in three fluorescence channels and analyzed by using the Nikon NIS‐Elements 3.2 confocal software (Nikon Instruments Inc., Melville, NY). […]

Compound | Inferred uptake (RAW264.7 macrophages [1]) | Observed cellular staining pattern (Notes) (RAW264.7 macrophages [1]) | Cellular staining relative to clofazimine (RAW264.7 macrophages [1]) | Staining in fixed cells (RAW264.7 macrophages [1]) | Accumulation in macrophages (RAW264.7 macrophages [2]) | Intracellular localization of compound (fluorescence, TRITC channel) (MDCK epithelial cells)
C[C@@H](CN=c1cc2n(-c3ccc(Cl)cc3)c3ccccc3nc-2cc1Nc1ccc(Cl)cc1)c1ccccc1 [Compound U] | Good | Fibrous/crystal-like brown inclusions with orange perinuclear vesicles are present in live cells | prominent cellular staining | absent in fixed cells | greatest accumulation | localized at the periphery of the cell nuclei
Clc1ccc(Nc2cc3nc4ccccc4n(-c4ccc(Cl)cc4)c-3cc2=NCCc2ccccc2)cc1 [Compound P] | Excellent | Large fibrous/crystal-like brown inclusions present in live cells | more prominent staining patterns | absent in fixed cells | greatest accumulation | localized at the periphery of the cell nuclei
